Experiments:
KRAS G12D = KRAS G12D (Homo sapiens, UniProt P01116, G12D); test: GDP-GTP exchange assay (bodipy-GDP/GppNHp, SOS1), KRAS G12D; assay type: biochemical; details: bodipy-loaded KRAS G12D 2.5 nM, 4 hours pre-incubation with inhibitor, 2 hours after GppNHp/SOS1; read-out: G12D_exchange IC50
Procedure: (§1) The inhibitor potency of the exemplified compounds was determined in a fluorescence based guanine nucleotide exchange assay, which measures the exchange of bodipy-GDP (fluorescently labeled GDP) for GppNHp (Non-hydrolyzable GTP analog) to generate the active state of KRAS in the presence of SOS1 (guanine nucleotide exchange factor). Inhibitors were serially diluted in DMSO and a volume of 0.1 μL was transferred to the wells of a black low volume 384-well plate. 5 μL/well volume of bodipy-loaded KRAS G12D diluted to 2.5 nM in assay buffer (25 mM Hepes pH 7.5, 50 mM NaCl, 10 mM MgCl2 and 0.01% Brij-35) was added to the plate and pre-incubated with inhibitor for 4 hours at ambient temperature. Appropriate controls (enzyme with no inhibitor or with a G12D inhibitor) were included on the plate. The exchange was initiated by the addition of a 5 μL/well volume containing 1 mM GppNHp and 300 nM SOS1 in assay buffer. The 10 μL/well reaction concentration of the bodipy-loaded KRAS G12D, GppNHp, and SOS1 were 2.5 nM, 500 uM, and 150 nM, respectively. The reaction plates were incubated at ambient temperature for 2 hours, a time estimated for complete GDP-GTP exchange in the absence of inhibitor. For the KRAS G12V mutant, similar guanine nucleotide exchange assays were used with 2.5 nM as final concentration for the bodipy loaded KRAS proteins and 3 hours incubation after adding GppNHp-SOS1 mixture. A cyclic peptide described to selectively bind G12D mutant (Sakamoto et al., BBRC 484.3 (2017), 605-611) or internal compounds with confirmed binding were used as positive controls in the assay plates. Fluorescence intensities were measured on a PheraStar plate reader instrument (BMG Labtech) with excitation at 485 nm and emission at 520 nm.
(§2) Either GraphPad prism or Genedata Screener SmartFit was used to analyze the data. The IC50 values were derived by fitting the data to a four parameter logistic equation producing a sigmoidal dose-response curve with a variable Hill coefficient.
(§3) The symbol “†” indicates IC50≤100 nM, “††” indicates IC50>100 nM but ≤1 μM; and “†††” indicates IC50 is >1 μM but ≤5 μM, “††††” indicates IC50 is >5 μM but ≤10 μM. “NA” indicates IC50 not available.

KRAS G12V = KRAS G12V (Homo sapiens, UniProt P01116, G12V); test: GDP-GTP exchange assay (bodipy-GDP/GppNHp, SOS1), KRAS G12V; assay type: biochemical; details: bodipy-loaded KRAS G12V 2.5 nM, 3 hours incubation after adding GppNHp-SOS1; read-out: G12V_exchange IC50
Procedure: as §1, §2, §3

KRAS = test: Inhibition of KRAS activity, assay not specified (at least one assay described herein); details: remark in the synthesis example, assay not named
From the text: The invention will be described in greater detail by way of specific examples. The following examples are offered for illustrative purposes, and are not intended to limit the invention in any manner. Those of skill in the art will readily recognize a variety of non-critical parameters which can be changed or modified to yield essentially the same results.

Chain of KRAS G12V (P01116 1-188 isoform P01116-2 G12V): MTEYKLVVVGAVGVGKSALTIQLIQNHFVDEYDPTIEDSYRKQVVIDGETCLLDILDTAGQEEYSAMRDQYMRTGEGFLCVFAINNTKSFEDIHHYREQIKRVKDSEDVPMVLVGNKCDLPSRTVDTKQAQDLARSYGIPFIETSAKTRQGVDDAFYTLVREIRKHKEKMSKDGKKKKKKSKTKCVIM
Chain of KRAS G12D (P01116 1-188 isoform P01116-2 G12D): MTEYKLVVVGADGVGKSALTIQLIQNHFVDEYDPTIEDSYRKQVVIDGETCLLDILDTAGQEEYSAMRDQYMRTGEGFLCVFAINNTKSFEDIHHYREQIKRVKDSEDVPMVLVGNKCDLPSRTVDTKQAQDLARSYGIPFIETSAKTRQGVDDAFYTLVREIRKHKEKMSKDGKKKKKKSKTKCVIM

SMILES | IC50 (KRAS G12D) [nM] | IC50 (KRAS G12V) [nM] | potency of isolated peak relative to the other diastereomer (KRAS)
CN(C)C(=O)CCc1nc2c(N3CC(N(C)C)C3)nc3c(F)c(-c4cc(O)cc(Cl)c4C4CC4)ccc3c2n1C1C2CNC1C2 (stereo not shown) [Example 11, 3-(1-(2-azabicyclo[2.1.1]hexan-5-yl)-7-(3-chloro-2-cyclopropyl-5-hydroxyphenyl)-4-(3-(dimethylamino)azetidin-1-yl)-6-fluoro-1H-imidazo[4,5-c]quinolin-2-yl)-N,N-dimethylpropanamide] | ≤ 100 | 1000 to 5000 | –
CN(C)C(=O)CCc1nc2c(N3CC(N(C)C)C3)nc3c(-c4cccc(C#N)c4)c(-c4cc(O)cc5ccccc45)c(CCC#N)cc3c2n1[C@@H]1[C@@H]2CN[C@H]1C2 (relative stereo) [Example 12, 3-(1-((endo)-2-azabicyclo[2.1.1]hexan-5-yl)-8-(2-cyanoethyl)-6-(3-cyanophenyl)-4-(3-(dimethylamino)azetidin-1-yl)-7-(3-hydroxynaphthalen-1-yl)-1H-imidazo[4,5-c]quinolin-2-yl)-N,N-dimethylpropanamide] | 100 to 1000 | 5000 to 10000 | –
CCn1ccc(-c2nc3c(N4CC(N(C)C)C4)nc4c(F)c(-c5cc(O)cc6ccccc56)c(CCC#N)cc4c3n2C2C3CNC2C3)n1 (single isomer, unassigned) [Example 35a, 3-(1-((endo)-2-azabicyclo[2.1.1]hexan-5-yl)-4-(3-(dimethylamino)azetidin-1-yl)-2-(1-ethyl-1H-pyrazol-3-yl)-6-fluoro-7-(3-hydroxynaphthalen-1-yl)-1H-imidazo[4,5-c]quinolin-8-yl)propanenitrile] | ≤ 100 | ≤ 100 | –
CN(C)C1CN(c2nc3c(F)c(-c4cc(O)cc5ccccc45)c(CCC#N)cc3c3c2nc(C2CC2)n3C2C3CNC2C3)C1 (single isomer, unassigned) [Example 25a, 3-(1-((endo)-2-Azabicyclo[2.1.1]hexan-5-yl)-2-cyclopropyl-4-(3-(dimethylamino)azetidin-1-yl)-6-fluoro-7-(3-hydroxynaphthalen-1-yl)-1H-imidazo[4,5-c]quinolin-8-yl)propanenitrile] | ≤ 100 | 100 to 1000 | –
CN1CCC[C@H]1COc1nc2c(F)c(-c3cc(O)cc4ccccc34)c(CCC#N)cc2c2c1nc(-c1cn(C3CCC3)nn1)n2C1C2CNC1C2 (single isomer, unassigned) [Example 27a] | ≤ 100 | ≤ 100 | –
CCc1nc2c(OCC34CCCN3CC(F)C4)nc3c(F)c(-c4c[nH]c5ccc(F)cc45)c(CCC#N)cc3c2n1C1C2CNC1C2 (mixture of isomers) [Example 30, 3-(1-((endo)-2-azabicyclo[2.1.1]hexan-5-yl)-2-ethyl-6-fluoro-7-(5-fluoro-1H-indol-3-yl)-4-(((2R,7aS)-2-fluorotetrahydro-1H-pyrrolizin-7a(5H)-yl)methoxy)-1H-imidazo[4,5-c]quinolin-8-yl)propanenitrile] | ≤ 100 | 100 to 1000 | –
CC(=O)N1CC[C@H](n2nnc3c(O[C@@H](C)[C@@H]4CCCN4C)nc4c(F)c(-c5cccc6cccc(C#N)c56)c(Cl)cc4c32)C[C@H]1CC#N [Example 44, 8-(1-((2S,4S)-1-acetyl-2-(cyanomethyl)piperidin-4-yl)-8-chloro-6-fluoro-4-((S)-1-((S)-1-methylpyrrolidin-2-yl)ethoxy)-1H-[1,2,3]triazolo[4,5-c]quinolin-7-yl)-1-naphthonitrile] | ≤ 100 | ≤ 100 | –
CN(C)C(=O)CCc1nc2c(N3CC(N(C)C)C3)nc3c(F)c(-c4cc(O)cc5ccccc45)cc(CN4CCC(C#N)C4)c3c2n1C1C2CNC1C2 (stereo not drawn) [Example 16, 3-(1-((endo)2-azabicyclo[2.1.1]hexan-5-yl)-9-((3-cyanopyrrolidin-1-yl)methyl)-4-(3-(dimethylamino)azetidin-1-yl)-6-fluoro-7-(3-hydroxynaphthalen-1-yl)-1H-imidazo[4,5-c]quinolin-2-yl)-N,N-dimethylpropanamide] | 100 to 1000 | 5000 to 10000 | –
CN(C)C1CN(c2nc3c(F)c(-c4cc(O)cc5ccccc45)c(CCC#N)cc3c3c2nc(CN2CCCC2=O)n3C2C3CNC2C3)C1 (single isomer, unassigned) [Example 5a, 3-(1-((endo)-2-azabicyclo[2.1.1]hexan-5-yl)-4-(3-(dimethylamino)azetidin-1-yl)-6-fluoro-7-(3-hydroxynaphthalen-1-yl)-2-((2-oxopyrrolidin-1-yl)methyl)-1H-imidazo[4,5-c]quinolin-8-yl)propanenitrile] | ≤ 100 | ≤ 100 | –

Now from value to molecule, other results behind:

IC50 (KRAS G12D) [nM] | IC50 (KRAS G12V) [nM] | SMILES | potency of isolated peak relative to the other diastereomer (KRAS)
≤ 100 | ≤ 100 | CC(=O)N1CC[C@H](n2cnc3c(O[C@@H](C)[C@@H]4CCCN4C)nc4c(F)c(-c5cccc6cccc(C#N)c56)c(Cl)cc4c32)C[C@H]1CC#N (single isomer, unassigned) [Example 39b] | potent peak
≤ 100 | ≤ 100 | CCc1nc2c(-c3cc(C(=O)NC)ccc3F)nc3c(F)c(-c4cc(O)cc5ccccc45)c(CCC#N)cc3c2n1C1C2CNC1C2 (single isomer, unassigned) [Example 17a, 3-(1-((endo)-2-Azabicyclo[2.1.1]hexan-5-yl)-8-(2-cyanoethyl)-2-ethyl-6-fluoro-7-(3-hydroxynaphthalen-1-yl)-1H-imidazo[4,5-c]quinolin-4-yl)-4-fluoro-N-methylbenzamide] | More potent peak
≤ 100 | ≤ 100 | CN(C)C(=O)CCc1nc2c(N3CC(N(C)C)C3)nc3c(F)c(-c4cc(O)cc5ccccc45)c(Cn4cccn4)cc3c2n1[C@@H]1[C@@H]2CN[C@H]1C2 (relative stereo) [Example 9, 3-(8-((1H-pyrazol-1-yl)methyl)-1-((endo)-2-azabicyclo[2.1.1]hexan-5-yl)-4-(3-(dimethylamino)azetidin-1-yl)-6-fluoro-7-(3-hydroxynaphthalen-1-yl)-1H-imidazo[4,5-c]quinolin-2-yl)-N,N-dimethylpropanamide] | –
≤ 100 | ≤ 100 | CN(C)C1CN(c2nc3c(F)c(-c4cc(O)cc5ccccc45)c(CCC#N)cc3c3c2nc(CCc2ncccn2)n3C2C3CNC2C3)C1 (single isomer, unassigned) [Example 37, 3-(1-((endo)-2-azabicyclo[2.1.1]hexan-5-yl)-4-(3-(dimethylamino)azetidin-1-yl)-6-fluoro-7-(3-hydroxynaphthalen-1-yl)-2-(2-(pyrimidin-2-yl)ethyl)-1H-imidazo[4,5-c]quinolin-8-yl)propanenitrile] | –
